For seven molecules, inhibition results are on record in ChEMBL document CHEMBL3132769, “Fragment growing to retain or alter the selectivity of anchored kinase hinge-binding fragments” (Medchemcomm, 2014).

The target in assay [1] is Protein kinase C gamma type (Homo sapiens) (UniProt P05129). The assay can be described thus: Inhibition of human truncated PKC gamma expressed in baculovirus assessed as substrate phosphorylation using fluorescence-labelled peptides as substrate at 0.1 uM after 90 mins by microfluidic peptide phosphorylation assay.
For assay [2], the target named is T1, Protein kinase C zeta type (Homo sapiens) (UniProt Q05513).
T1 sequence (whole entry): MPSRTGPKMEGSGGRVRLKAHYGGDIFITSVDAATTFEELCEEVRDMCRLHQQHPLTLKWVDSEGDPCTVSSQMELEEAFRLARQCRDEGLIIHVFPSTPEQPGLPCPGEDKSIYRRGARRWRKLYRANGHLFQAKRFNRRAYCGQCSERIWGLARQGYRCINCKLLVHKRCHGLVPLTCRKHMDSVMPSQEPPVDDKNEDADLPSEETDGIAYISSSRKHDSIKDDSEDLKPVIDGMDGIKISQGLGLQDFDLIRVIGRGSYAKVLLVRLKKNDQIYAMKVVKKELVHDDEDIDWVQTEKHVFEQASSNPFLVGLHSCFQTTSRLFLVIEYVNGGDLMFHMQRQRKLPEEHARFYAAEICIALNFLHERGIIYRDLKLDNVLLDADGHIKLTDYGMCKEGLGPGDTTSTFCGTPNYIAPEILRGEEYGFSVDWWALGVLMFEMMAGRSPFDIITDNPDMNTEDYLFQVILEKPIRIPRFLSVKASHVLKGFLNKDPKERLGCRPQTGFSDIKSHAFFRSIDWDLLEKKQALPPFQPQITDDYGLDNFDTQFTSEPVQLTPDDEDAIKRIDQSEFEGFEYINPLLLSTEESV
Briefly: Inhibition of human full length PKC zeta expressed in baculovirus assessed as substrate phosphorylation using fluorescence-labelled peptides as substrate at 420 uM after 90 mins by microfluidic peptide phosphorylation assay.

For assay [3], the target named is T2, Protein kinase C epsilon type (Homo sapiens) (UniProt Q02156).
T2 sequence (whole entry): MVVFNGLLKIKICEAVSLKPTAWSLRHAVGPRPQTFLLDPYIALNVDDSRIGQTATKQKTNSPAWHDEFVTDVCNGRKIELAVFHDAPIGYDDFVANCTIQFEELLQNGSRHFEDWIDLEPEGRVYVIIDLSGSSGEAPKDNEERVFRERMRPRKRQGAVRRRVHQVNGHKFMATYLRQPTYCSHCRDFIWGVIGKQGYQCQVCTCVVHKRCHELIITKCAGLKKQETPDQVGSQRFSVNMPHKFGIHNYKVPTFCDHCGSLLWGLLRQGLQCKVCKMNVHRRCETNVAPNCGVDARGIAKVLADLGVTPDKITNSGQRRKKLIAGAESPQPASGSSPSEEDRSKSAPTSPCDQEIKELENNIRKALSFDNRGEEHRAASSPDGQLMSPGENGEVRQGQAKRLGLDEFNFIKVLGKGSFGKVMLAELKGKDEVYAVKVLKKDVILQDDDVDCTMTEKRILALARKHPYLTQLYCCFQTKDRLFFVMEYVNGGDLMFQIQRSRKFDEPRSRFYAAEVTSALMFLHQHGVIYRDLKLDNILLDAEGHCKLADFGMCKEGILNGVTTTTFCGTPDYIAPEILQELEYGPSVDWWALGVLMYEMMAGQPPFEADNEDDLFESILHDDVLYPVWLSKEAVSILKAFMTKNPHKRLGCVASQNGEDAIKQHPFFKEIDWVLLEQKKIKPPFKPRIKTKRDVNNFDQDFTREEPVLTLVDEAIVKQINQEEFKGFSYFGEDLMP
Briefly: Inhibition of human truncated PKC epsilon expressed in baculovirus assessed as substrate phosphorylation using fluorescence-labelled peptides as substrate at 9 uM after 90 mins by microfluidic peptide phosphorylation assay.

For assay [4], the target named is T3, Serine/threonine-protein kinase Sgk2 (Homo sapiens) (UniProt Q9HBY8).
T3 sequence (whole entry): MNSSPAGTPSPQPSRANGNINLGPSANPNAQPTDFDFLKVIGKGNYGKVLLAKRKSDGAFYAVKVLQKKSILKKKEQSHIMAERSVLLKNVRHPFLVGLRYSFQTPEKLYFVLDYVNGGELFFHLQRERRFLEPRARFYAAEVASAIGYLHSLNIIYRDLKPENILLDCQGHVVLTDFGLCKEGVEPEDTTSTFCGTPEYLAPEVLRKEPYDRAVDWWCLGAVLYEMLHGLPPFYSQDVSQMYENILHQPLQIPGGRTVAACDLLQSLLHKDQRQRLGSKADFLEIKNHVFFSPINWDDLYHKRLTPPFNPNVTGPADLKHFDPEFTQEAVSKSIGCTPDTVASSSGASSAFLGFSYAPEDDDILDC
Briefly: Inhibition of human full length SGK2 expressed in baculovirus assessed as substrate phosphorylation using fluorescence-labelled peptides as substrate at 8 uM after 90 mins by microfluidic peptide phosphorylation assay.

Assay [5] has as its target Casein kinase I isoform alpha (Homo sapiens) (UniProt P48729). The assay can be described thus: Inhibition of human full length CSNK1A1 expressed in baculovirus assessed as substrate phosphorylation using fluorescence-labelled peptides as substrate at 8 uM after 90 mins by microfluidic peptide phosphorylation assay.
For assay [6], the target named is Tyrosine-protein kinase Fer (Homo sapiens) (UniProt P16591). Briefly: Inhibition of human FER catalytic domain expressed in baculovirus assessed as substrate phosphorylation using fluorescence-labelled peptides as substrate at 8 uM after 90 mins by microfluidic peptide phosphorylation assay.
The target of assay [7] is Tyrosine-protein kinase HCK (Homo sapiens) (UniProt P08631). Briefly: Inhibition of human HCK catalytic domain expressed in baculovirus assessed as substrate phosphorylation using fluorescence-labelled peptides as substrate at […] after 90 mins by microfluidic peptide phosphorylation assay.
Assay [8] shares this target. The assay can be described thus: Inhibition of human HCK catalytic domain expressed in baculovirus assessed as substrate phosphorylation using fluorescence-labelled peptides as substrate at 0.06 uM after 90 mins by microfluidic peptide phosphorylation assay.
The target of assay [9] is Protein kinase C beta type (Homo sapiens) (UniProt P05771). Briefly: Inhibition of human full length PKC beta2 expressed in baculovirus assessed as substrate phosphorylation using fluorescence-labelled peptides as substrate at 0.06 uM after 90 mins by microfluidic peptide phosphorylation assay.
Assay [10] has as its target Protein kinase C delta type (Homo sapiens) (UniProt Q05655). Briefly: Inhibition of human truncated PKC delta expressed in baculovirus assessed as substrate phosphorylation using fluorescence-labelled peptides as substrate at 2 uM after 90 mins by microfluidic peptide phosphorylation assay.

Sequence of Tyrosine-protein kinase HCK (Homo sapiens) (P08631 2-526 limits assumed): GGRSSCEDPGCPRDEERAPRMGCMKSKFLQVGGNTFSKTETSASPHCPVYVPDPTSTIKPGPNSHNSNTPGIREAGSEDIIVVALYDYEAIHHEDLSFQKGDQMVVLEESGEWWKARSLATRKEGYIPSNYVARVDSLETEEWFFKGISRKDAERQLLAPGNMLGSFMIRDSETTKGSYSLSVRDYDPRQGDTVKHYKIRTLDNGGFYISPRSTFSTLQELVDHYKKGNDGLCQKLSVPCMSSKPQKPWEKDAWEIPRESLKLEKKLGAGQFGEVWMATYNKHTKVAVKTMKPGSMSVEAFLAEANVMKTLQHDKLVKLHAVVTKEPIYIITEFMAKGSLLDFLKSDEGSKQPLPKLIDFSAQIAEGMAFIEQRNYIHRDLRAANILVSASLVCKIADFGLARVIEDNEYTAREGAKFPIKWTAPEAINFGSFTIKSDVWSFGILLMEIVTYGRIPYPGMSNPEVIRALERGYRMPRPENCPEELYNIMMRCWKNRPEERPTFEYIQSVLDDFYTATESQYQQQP
Sequence of Protein kinase C delta type (Homo sapiens) (Q05655 whole entry, looked up, the tested form may be a part): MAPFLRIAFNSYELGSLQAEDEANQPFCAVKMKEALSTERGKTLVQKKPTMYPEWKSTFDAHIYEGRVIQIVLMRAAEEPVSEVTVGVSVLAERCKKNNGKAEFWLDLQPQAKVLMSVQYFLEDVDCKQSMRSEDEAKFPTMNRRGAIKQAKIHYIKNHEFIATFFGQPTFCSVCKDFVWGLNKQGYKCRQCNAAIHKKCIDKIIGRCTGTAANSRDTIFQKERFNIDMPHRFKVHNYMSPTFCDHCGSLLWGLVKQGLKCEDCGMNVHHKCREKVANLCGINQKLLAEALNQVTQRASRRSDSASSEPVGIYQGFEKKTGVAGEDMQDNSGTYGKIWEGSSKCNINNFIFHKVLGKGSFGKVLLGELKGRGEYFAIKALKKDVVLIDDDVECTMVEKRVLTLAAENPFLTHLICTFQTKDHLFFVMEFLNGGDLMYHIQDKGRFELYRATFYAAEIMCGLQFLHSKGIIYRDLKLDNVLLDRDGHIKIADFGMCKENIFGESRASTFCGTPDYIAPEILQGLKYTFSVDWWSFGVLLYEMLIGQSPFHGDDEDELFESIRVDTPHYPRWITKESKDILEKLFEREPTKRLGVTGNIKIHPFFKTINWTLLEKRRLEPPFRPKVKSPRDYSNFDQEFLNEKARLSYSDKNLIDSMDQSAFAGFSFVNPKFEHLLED
Sequence of Tyrosine-protein kinase Fer (Homo sapiens) (P16591 whole entry, looked up, the tested form may be a part): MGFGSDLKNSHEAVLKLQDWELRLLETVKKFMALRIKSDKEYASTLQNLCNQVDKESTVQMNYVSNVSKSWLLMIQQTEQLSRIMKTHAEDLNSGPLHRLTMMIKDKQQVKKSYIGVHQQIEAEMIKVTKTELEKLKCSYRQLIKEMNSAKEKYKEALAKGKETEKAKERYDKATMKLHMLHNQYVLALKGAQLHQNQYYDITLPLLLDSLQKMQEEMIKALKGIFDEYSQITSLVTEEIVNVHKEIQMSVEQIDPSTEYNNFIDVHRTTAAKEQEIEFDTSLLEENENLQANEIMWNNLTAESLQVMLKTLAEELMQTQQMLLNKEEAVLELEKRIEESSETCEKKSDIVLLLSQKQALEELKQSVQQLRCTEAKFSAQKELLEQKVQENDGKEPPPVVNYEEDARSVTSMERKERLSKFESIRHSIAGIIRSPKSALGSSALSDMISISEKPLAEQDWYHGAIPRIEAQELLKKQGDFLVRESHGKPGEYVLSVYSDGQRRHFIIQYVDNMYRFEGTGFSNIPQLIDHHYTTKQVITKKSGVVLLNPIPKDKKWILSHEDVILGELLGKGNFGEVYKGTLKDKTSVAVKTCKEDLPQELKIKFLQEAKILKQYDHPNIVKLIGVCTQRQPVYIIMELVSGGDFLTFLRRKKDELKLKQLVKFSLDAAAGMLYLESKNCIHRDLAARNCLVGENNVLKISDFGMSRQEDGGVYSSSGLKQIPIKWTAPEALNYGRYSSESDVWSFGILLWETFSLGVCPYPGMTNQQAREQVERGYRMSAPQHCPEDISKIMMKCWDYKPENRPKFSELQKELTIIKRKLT
Sequence of Protein kinase C beta type (Homo sapiens) (P05771 2-671 limits assumed): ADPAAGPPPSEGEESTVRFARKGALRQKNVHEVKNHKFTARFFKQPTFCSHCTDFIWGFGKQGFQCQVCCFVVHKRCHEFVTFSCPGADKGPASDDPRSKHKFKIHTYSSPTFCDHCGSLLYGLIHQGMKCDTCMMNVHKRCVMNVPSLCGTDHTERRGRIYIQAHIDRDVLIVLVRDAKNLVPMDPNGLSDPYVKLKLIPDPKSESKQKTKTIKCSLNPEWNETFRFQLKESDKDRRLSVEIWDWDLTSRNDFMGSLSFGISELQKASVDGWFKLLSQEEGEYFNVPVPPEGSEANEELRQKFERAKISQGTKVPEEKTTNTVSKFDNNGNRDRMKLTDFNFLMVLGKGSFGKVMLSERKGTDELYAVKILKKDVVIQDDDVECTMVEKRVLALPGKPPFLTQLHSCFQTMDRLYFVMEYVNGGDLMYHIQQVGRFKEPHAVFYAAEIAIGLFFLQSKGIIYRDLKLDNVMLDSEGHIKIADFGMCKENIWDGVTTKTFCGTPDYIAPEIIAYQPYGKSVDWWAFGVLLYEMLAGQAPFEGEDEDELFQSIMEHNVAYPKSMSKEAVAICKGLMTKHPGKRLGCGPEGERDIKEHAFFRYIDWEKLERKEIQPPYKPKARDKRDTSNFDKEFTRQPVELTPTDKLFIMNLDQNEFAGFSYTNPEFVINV
Sequence of Casein kinase I isoform alpha (Homo sapiens) (P48729 2-337 limits assumed): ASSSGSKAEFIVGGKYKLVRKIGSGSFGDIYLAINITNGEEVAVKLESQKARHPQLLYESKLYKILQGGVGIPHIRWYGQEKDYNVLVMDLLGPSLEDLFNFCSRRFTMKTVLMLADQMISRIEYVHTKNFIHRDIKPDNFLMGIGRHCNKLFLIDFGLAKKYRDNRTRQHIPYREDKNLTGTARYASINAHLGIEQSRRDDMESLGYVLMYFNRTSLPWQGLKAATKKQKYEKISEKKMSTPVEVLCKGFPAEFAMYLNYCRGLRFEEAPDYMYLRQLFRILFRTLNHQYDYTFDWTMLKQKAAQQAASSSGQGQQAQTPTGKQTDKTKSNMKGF

In the case of `C[C@H](CN(C)C)Oc1nc(Nc2cc3cccc(Cl)c3cn2)cnc1C#N`, in [1], the inhibition was determined as 6%.
Take `c1nc(N2CCOCC2)c2nc[nH]c2n1`: the inhibition in assay [2] was 46%.
`NCC1CN(c2ncnc3[nH]c4cnccc4c23)CCO1` (stereo not given): the inhibition in [3] is 14.5%.
`NCC1CCN(c2ncnc3[nH]ccc23)CC1`: the inhibition in assay [4] was 69%; in [5], 32.5%; in [6], 1.5%.
`COC(=O)c1cnc(Nc2cnc(C#N)cn2)cc1NCC1CCNCC1`: in [7], the inhibition came to 11%.
Consider `NC1(Cc2ccc(Cl)cc2)CCN(c2ncnc3[nH]ccc23)CC1`, for which the inhibition in assay [8] came to 7%; in assay [9], 0%.
Take `NC1CCN(c2ncnc3[nH]ccc23)CC1`: the inhibition in [10] turned out to be 33%.

The term inhibition denotes the change of the read-out against control, counted positive when it falls.
